Earlier results as cited in patent US8535717B2, “Pharmaceutical composition” (Sun Pharma Advanced Research Company Limited, priority 2005, dated 2013).

solubility (cannot be decreased by altering pH of the microenvironment): 104 g/100 ml | solubility in water (water): 104 g in 100 ml
Structure (SMILES): CC[C@@H](C(N)=O)N1CCCC1=O [levetiracetam]
